The supplement of paper PMC8617591

How the values were obtained:
[1] = tested on: Mycobacterium tuberculosis Erdman (autoluminescent); test: total FIC50 (Loewe) at 50% inhibition, three-drug combination (log2); higher = more antagonistic
Description: (§1)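 DiaMOND equipotent three-drug combination dose responses (10 doses, 1.5- or 2-fold spacing, centred on IC90) against autoluminescent M. tuberculosis Erdman in 8 in vitro models. Read-out is OD600, or luminescence for the intracellular and dormancy models, normalised to untreated wells. Hill-fit Einf, AUC25 and GRinf are potency metrics; FIC50 and FIC90 are total Loewe fractional inhibitory concentrations as log2 (negative = synergy).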

[2] = tested on: Mycobacterium tuberculosis Erdman (autoluminescent); test: total FIC90 (Loewe) at 90% inhibition, three-drug combination (log2); higher = more antagonistic
Description: as §1

[3] = tested on: Mycobacterium tuberculosis Erdman (autoluminescent); test: Einf, fitted maximum growth inhibition of three-drug combination (fraction); higher = stronger maximal inhibition
Description: as §1

[4] = tested on: Mycobacterium tuberculosis Erdman (autoluminescent); test: AUC25, normalised area under dose response up to IC25 (three-drug combination) (fraction (0-1)); higher = more potent at low dose
Description: as §1

[5] = tested on: Mycobacterium tuberculosis Erdman (autoluminescent); test: GRinf, maximum normalised growth rate inhibition (three-drug combination) (unitless (-1 to 1)); higher = less effect (negative = killing)
Description: as §1

COc1nc2ccc(Br)cc2cc1[C@@H](c1ccccc1)[C@@](O)(CCN(C)C)c1cccc2ccccc12 [bedaquiline] + O=[N+]([O-])c1cn2c(n1)OC[C@@H](OCc1ccc(OC(F)(F)F)cc1)C2 [pretomanid] + CO[C@H]1/C=C/O[C@@]2(C)Oc3c(C)c(O)c4c(O)c(c(/C=N/N5CCN(C)CC5)c(O)c4c3C2=O)NC(=O)/C(C)=C\C=C\[C@H](C)[C@H](O)[C@@H](C)[C@@H](O)[C@@H](C)[C@H](OC(C)=O)[C@@H]1C [rifampicin]
Conditions	AUC25, [4]	Einf, [3]	GRinf, [5]	total FIC50, [1]	total FIC90, [2]
in vitro model: acidic pH 5.7, time point: constant (~7 days, model-specific)	0.111	0.938	-0.379	0.68	–
in vitro model: acidic pH 5.7, time point: terminal (~4-5 doublings, model-specific)	0.0826	0.993	-0.38	0.724	0.613
in vitro model: intracellular J774, time point: constant = terminal	–	0.978	-0.416	–	-0.222

Conditions	AUC25, [4]	Einf, [3]	GRinf, [5]	total FIC50, [1]	total FIC90, [2]
in vitro model: butyrate, time point: constant (~7 days, model-specific)	0.106	0.931	-0.0326	0.367	0.71
in vitro model: butyrate, time point: terminal (~4-5 doublings, model-specific)	0.0986	0.977	-0.041	0.237	0.69
in vitro model: cholesterol 0.05 mM, time point: constant (~7 days, model-specific)	0.116	0.764	-0.188	0.697	–
in vitro model: cholesterol 0.05 mM, time point: terminal (~4-5 doublings, model-specific)	0.0763	0.813	0.0382	0.812	-0.454
in vitro model: cholesterol-high 0.2 mM, time point: constant (~7 days, model-specific)	0.0584	0.921	-0.229	1.22	1.66
in vitro model: cholesterol-high 0.2 mM, time point: terminal (~4-5 doublings, model-specific)	0.0574	1	-0.652	1.17	0.914
in vitro model: dormancy (butyrate + nitrate, low O2), time point: constant (~7 days, model-specific)	0.0611	0.9	0.255	0.0572	-0.559
in vitro model: dormancy (butyrate + nitrate, low O2), time point: terminal (~4-5 doublings, model-specific)	0.0439	0.982	-0.104	0.00851	-0.259
in vitro model: standard 7H9 glycerol, time point: constant = terminal	0.0794	0.937	-0.1	0.14	-0.371
in vitro model: valerate, time point: constant (~7 days, model-specific)	0.103	0.897	-0.11	1.04	–
in vitro model: valerate, time point: terminal (~4-5 doublings, model-specific)	0.0424	0.951	-0.0825	1.09	0.566

COc1nc2ccc(Br)cc2cc1[C@@H](c1ccccc1)[C@@](O)(CCN(C)C)c1cccc2ccccc12 [bedaquiline] + CC(C)/N=c1\cc2n(-c3ccc(Cl)cc3)c3ccccc3nc-2cc1Nc1ccc(Cl)cc1 [clofazimine] + NC(=O)c1cnccn1 [pyrazinamide]
Conditions	AUC25, [4]	Einf, [3]	GRinf, [5]	total FIC50, [1]	total FIC90, [2]
in vitro model: acidic pH 5.7, time point: constant (~7 days, model-specific)	0.0929	0.862	-0.349	0.0846	–
in vitro model: acidic pH 5.7, time point: terminal (~4-5 doublings, model-specific)	0.074	0.968	-0.284	0.193	-0.409
in vitro model: intracellular J774, time point: constant = terminal	–	0.963	-0.197	–	-0.109

Conditions	AUC25, [4]	Einf, [3]	GRinf, [5]	total FIC50, [1]	total FIC90, [2]
in vitro model: butyrate, time point: constant (~7 days, model-specific)	0.0756	0.946	-0.0789	-0.624	-0.916
in vitro model: butyrate, time point: terminal (~4-5 doublings, model-specific)	0.0582	0.977	-0.0813	-0.595	-1.03
in vitro model: cholesterol 0.05 mM, time point: constant (~7 days, model-specific)	0.0812	0.732	-0.17	–	–
in vitro model: cholesterol 0.05 mM, time point: terminal (~4-5 doublings, model-specific)	0.0926	0.939	-0.225	0.513	–
in vitro model: cholesterol-high 0.2 mM, time point: constant (~7 days, model-specific)	0.06	0.921	-0.227	-0.0552	–
in vitro model: cholesterol-high 0.2 mM, time point: terminal (~4-5 doublings, model-specific)	0.0776	1	-0.556	0.345	-0.162
in vitro model: dormancy (butyrate + nitrate, low O2), time point: constant (~7 days, model-specific)	0.0795	0.924	0.201	-1.18	-1.48
in vitro model: dormancy (butyrate + nitrate, low O2), time point: terminal (~4-5 doublings, model-specific)	0.0671	0.991	-0.181	-0.97	-1.37
in vitro model: standard 7H9 glycerol, time point: constant = terminal	0.0904	0.961	-0.0928	-0.389	–
in vitro model: valerate, time point: constant (~7 days, model-specific)	0.103	0.884	0.0304	0.388	–
in vitro model: valerate, time point: terminal (~4-5 doublings, model-specific)	0.0692	0.929	0.0196	0.415	0.773

COc1nc2ccc(Br)cc2cc1[C@@H](c1ccccc1)[C@@](O)(CCN(C)C)c1cccc2ccccc12 [bedaquiline] + CC(=O)NC[C@H]1CN(c2ccc(N3CCOCC3)c(F)c2)C(=O)O1 [linezolid] + CO[C@H]1/C=C/O[C@@]2(C)Oc3c(C)c(O)c4c(O)c(c(/C=N/N5CCN(C6CCCC6)CC5)c(O)c4c3C2=O)NC(=O)/C(C)=C\C=C\[C@H](C)[C@H](O)[C@@H](C)[C@@H](O)[C@@H](C)[C@H](OC(C)=O)[C@@H]1C [rifapentine]
Conditions	AUC25, [4]	Einf, [3]	GRinf, [5]	total FIC50, [1]	total FIC90, [2]
in vitro model: acidic pH 5.7, time point: constant (~7 days, model-specific)	0.108	0.926	-0.244	0.654	–
in vitro model: acidic pH 5.7, time point: terminal (~4-5 doublings, model-specific)	0.0848	0.986	-0.26	0.615	0.662
in vitro model: intracellular J774, time point: constant = terminal	–	0.933	-0.098	–	-0.0532

Conditions	AUC25, [4]	Einf, [3]	GRinf, [5]	total FIC50, [1]	total FIC90, [2]
in vitro model: butyrate, time point: constant (~7 days, model-specific)	0.0812	0.921	-0.0254	0.437	-0.119
in vitro model: butyrate, time point: terminal (~4-5 doublings, model-specific)	0.0511	0.948	-0.00583	0.274	-0.145
in vitro model: cholesterol 0.05 mM, time point: constant (~7 days, model-specific)	0.127	0.761	-0.281	-0.0889	–
in vitro model: cholesterol 0.05 mM, time point: terminal (~4-5 doublings, model-specific)	0.121	0.93	-0.354	0.0726	0.0812
in vitro model: cholesterol-high 0.2 mM, time point: constant (~7 days, model-specific)	0.0873	0.998	-0.89	0.58	1.04
in vitro model: cholesterol-high 0.2 mM, time point: terminal (~4-5 doublings, model-specific)	0.1	1	-0.637	0.404	0.653
in vitro model: dormancy (butyrate + nitrate, low O2), time point: constant (~7 days, model-specific)	0.0901	0.933	0.0917	0.915	1.57
in vitro model: dormancy (butyrate + nitrate, low O2), time point: terminal (~4-5 doublings, model-specific)	0.0384	0.985	-0.095	0.965	0.698
in vitro model: standard 7H9 glycerol, time point: constant = terminal	0.0734	0.939	-0.014	0.253	0.00862
in vitro model: valerate, time point: constant (~7 days, model-specific)	0.0755	0.899	-0.197	0.659	–
in vitro model: valerate, time point: terminal (~4-5 doublings, model-specific)	0.0423	0.945	-0.0248	0.581	0.338
